Source: patent US10774086B2, “GSK-3 inhibitors” (BRISTOL-MYERS SQUIBB COMPANY, priority 2016, dated 2020)

Experiments:
GSK3β = GSK3β (Homo sapiens (Human), UniProt P49841); test: GSK3β kinase assay (Caliper LabChip, fluoresceinated peptide substrate); type: biochemical; conditions: 250 pM enzyme, 20 uM ATP, 1.5 uM peptide, 20 hours room temperature; read-out: GSK3β IC50 (first value of GSK3β/GSK3α)
Description: The kinase assay was performed in V-bottom 384-well plates. […] The reaction was incubated at room temperature for 20 hours and terminated by adding 45 μl of 35 mM EDTA to each sample. The reaction mixture was analyzed on the Caliper LabChip3000 (Caliper, Hopkinton, Mass.) by electrophoretic separation of the unphosphorylated substrate and phosphorylated product. […] Compounds were dissolved at 10 mM in dimethylsulfoxide (DMSO) and evaluated at eleven concentrations. IC50 values were derived by non-linear regression analysis.

GSK3α = GSK3α (Homo sapiens (Human), UniProt P49840); test: GSK3α kinase assay (Caliper LabChip, fluoresceinated peptide substrate); type: biochemical; conditions: 250 pM enzyme, 20 uM ATP, 1.5 uM peptide, 20 hours room temperature; read-out: GSK3α IC50 (second value of GSK3β/GSK3α)
Sequence of GSK3α (P49840 whole entry, species assumed): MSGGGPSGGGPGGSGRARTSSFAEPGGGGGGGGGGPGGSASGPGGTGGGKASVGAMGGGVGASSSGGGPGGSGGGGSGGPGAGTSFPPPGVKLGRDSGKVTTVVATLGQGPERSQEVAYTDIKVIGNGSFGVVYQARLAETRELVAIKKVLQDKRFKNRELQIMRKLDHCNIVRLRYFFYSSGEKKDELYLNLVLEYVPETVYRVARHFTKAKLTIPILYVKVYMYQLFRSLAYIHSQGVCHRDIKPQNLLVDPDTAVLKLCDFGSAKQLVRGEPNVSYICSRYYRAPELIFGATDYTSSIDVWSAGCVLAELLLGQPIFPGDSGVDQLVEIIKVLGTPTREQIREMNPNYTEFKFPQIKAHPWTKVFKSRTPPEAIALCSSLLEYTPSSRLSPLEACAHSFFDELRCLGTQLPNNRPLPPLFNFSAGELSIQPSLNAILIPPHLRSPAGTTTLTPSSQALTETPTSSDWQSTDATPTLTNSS
Excerpt: IC50 values were derived by non-linear regression analysis.

pTau = pTau assay; type: cell-based

Sequence of GSK3β (P49841 whole entry, species assumed): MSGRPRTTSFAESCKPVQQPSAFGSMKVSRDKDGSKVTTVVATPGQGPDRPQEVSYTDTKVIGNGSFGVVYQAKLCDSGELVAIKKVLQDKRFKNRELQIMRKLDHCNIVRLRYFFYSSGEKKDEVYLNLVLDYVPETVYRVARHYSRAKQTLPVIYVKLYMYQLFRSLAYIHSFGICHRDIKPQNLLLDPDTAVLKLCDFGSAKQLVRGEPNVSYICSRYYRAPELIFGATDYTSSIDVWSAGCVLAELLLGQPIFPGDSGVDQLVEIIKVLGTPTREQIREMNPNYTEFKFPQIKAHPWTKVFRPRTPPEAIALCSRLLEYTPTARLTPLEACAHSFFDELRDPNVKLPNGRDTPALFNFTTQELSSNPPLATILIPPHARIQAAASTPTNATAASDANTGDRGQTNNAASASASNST

| IC50 (GSK3β) [nM] | IC50 (GSK3α) [nM] | IC50 (pTau) [nM] | SMILES |
| --- | --- | --- | --- |
| 220 | 900 | > 10000 | O=C(Nc1cccnc1)c1ccnn2c(NCC3CC3)cnc12 [Example 39, 3-((Cyclopropylmethyl)amino)-N-(pyridin-3-yl)imidazo[1,2-b]pyridazine-8-carboxamide] |
| 63 | 30 | 3900 | Cc1ccncc1NC(=O)c1ccnn2c(NCC3CC3)cnc12 [Example 40, 3-((Cyclopropylmethyl)amino)-N-(4-methylpyridin-3-yl)imidazo[1,2-b]pyridazine-8-carboxamide] |
| 6.6 | 3.4 | 290 | CC(C)Oc1ccncc1NC(=O)c1ccnn2c(NCC3CC3)cnc12 [Example 41, 3-((Cyclopropylmethyl)amino)-N-(4-isopropoxypyridin-3-yl)imidazo[1,2-b]pyridazine-8-carboxamide] |
| 5.2 | 1.6 | 140 | CC1CN(c2ccncc2NC(=O)c2ccnn3c(NCC4CC4)cnc23)CCO1 (stereo not drawn) [Example 45, 3-((Cyclopropylmethyl)amino)-N-(4-(2-methylmorpholino)pyridin-3-yl)imidazo[1,2-b]pyridazine-8-carboxamide] |

More lines, now with the values behind:

| SMILES | IC50 (GSK3β) [nM] | IC50 (GSK3α) [nM] | IC50 (pTau) [nM] |
| --- | --- | --- | --- |
| O=C(Nc1cnccc1-c1ccc(F)cc1)c1ccnn2cc(C3=CCCCC3)nc12 [Example 33, 2-(Cyclohex-1-en-1-yl)-N-(4-(4-fluorophenyl)pyridin-3-yl)imidazo[1,2-b]pyridazine-8-carboxamide] | 6.1 | 1.2 | 820 |
| O=C(Nc1cnccc1N1CCC(F)(F)CC1)c1ccnn2cc(C3=CCCCC3)nc12 [Example 34, 2-(Cyclohex-1-en-1-yl)-N-(4-(4,4-difluoropiperidin-1-yl)pyridin-3-yl)imidazo[1,2-b]pyridazine-8-carboxamide] | 0.4 | 0.1 | 28 |
| CC1CN(c2ccncc2NC(=O)c2ccnn3cc(C4=CCCCC4)nc23)CCO1 (stereo not drawn) [Example 35, 2-(Cyclohex-1-en-1-yl)-N-(4-(2-methylmorpholino)pyridin-3-yl)imidazo[1,2-b]pyridazine-8-carboxamide] | 1.6 | 1 | 160 |
| CCOc1ncncc1NC(=O)c1ccnn2cc(-c3ccccc3)nc12 [Example 37, N-(4-Ethoxypyrimidin-5-yl)-2-phenylimidazo[1,2-b]pyridazine-8-carboxamide] | 5.3 | 1 | 620 |
| O=C(Nc1cncnc1OCC(F)(F)F)c1ccnn2cc(-c3ccccc3)nc12 [Example 38, 2-Phenyl-N-(4-(2,2,2-trifluoroethoxy)pyrimidin-5-yl)imidazo[1,2-b]pyridazine-8-carboxamide] | 3.6 | 1 | 330 |
| O=C(Nc1cnccc1-c1ccccc1)c1ccnn2c(NCC3CC3)cnc12 [Example 42, 3-((Cyclopropylmethyl)amino)-N-(4-phenylpyridin-3-yl)imidazo[1,2-b]pyridazine-8-carboxamide] | 3.4 | 3.2 | 320 |
| O=C(Nc1cnccc1N1CCC(F)(F)CC1)c1ccnn2c(NCC3CC3)cnc12 [Example 43, 3-((Cyclopropylmethyl)amino)-N-(4-(4,4-difluoropiperidin-1-yl)pyridin-3-yl)imidazo[1,2-b]pyridazine-8-carboxamide] | 1.1 | 2 | 41 |
| O=C(Nc1cnccc1N1CCOCC1)c1ccnn2c(NCC3CC3)cnc12 [Example 44, 3-((Cyclopropylmethyl)amino)-N-(4-morpholinopyridin-3-yl)imidazo[1,2-b]pyridazine-8-carboxamide] | 9 | 1.4 | 65 |
| CC(C)Oc1ccncc1NC(=O)c1ccnn2c(NC(=O)C3CC3)cnc12 [Example 46, 3-(Cyclopropanecarboxamido)-N-(4-isopropoxypyridin-3-yl)imidazo[1,2-b]pyridazine-8-carboxamide] | 6 | 51 | 5100 |
| CC(C)Oc1ccncc1NC(=O)c1ccnn2c(NC(=O)C3CCC3)cnc12 [Example 47, 3-(Cyclobutanecarboxamido)-N-(4-isopropoxypyridin-3-yl)imidazo[1,2-b]pyridazine-8-carboxamide] | 140 | 110 | 6800 |
